Type in all cases: cell-based
For experiment [1], the target named is T1, hT2R8 (Homo sapiens, UniProt Q9NYW2).
T1 construct: expressed in transfected cells; host or cells: human embryonic kidney (HEK293) cells, transient transfection
T1 sequence (Q9NYW2 1-309): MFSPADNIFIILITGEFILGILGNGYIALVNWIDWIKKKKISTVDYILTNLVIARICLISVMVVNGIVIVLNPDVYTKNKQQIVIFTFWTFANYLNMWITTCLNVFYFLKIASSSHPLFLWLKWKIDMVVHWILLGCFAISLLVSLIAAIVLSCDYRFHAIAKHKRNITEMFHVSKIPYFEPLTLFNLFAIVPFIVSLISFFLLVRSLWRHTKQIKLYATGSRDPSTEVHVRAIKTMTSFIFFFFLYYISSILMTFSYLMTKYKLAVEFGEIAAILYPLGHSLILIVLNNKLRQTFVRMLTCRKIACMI
Kind of experiment: calcium imaging of HEK293 cells transfected with hT2R8 and chimeric G protein G16gust44. As to conditions: for response of HEK-293 cells that express hT2R8: 2 mM concentrations, FIG. 3; for response of hT2R8 (increase in intracellular calcium concentration): different concentrations, FIG. 2 / FIG. 4. Here is the method:
(§1) More particularly, the present inventors transfected HEK293 cells with a particular hT2R together with a chimeric G protein (G 16gust44) which comprises the Gα16 G protein sequence modified by the replacement of carboxy-44 amino acid residues with those of gustducin, and recorded responses of these cells to specific bitter ligands by calcium imaging methods.
(§2) Activation of these receptors by 3CoQAL is measured in a cell-based assay detecting changes in intracellular calcium concentration. In brief, human embryonic kidney cells are seeded in 48-well tissue culture plates. 24 hours later, the cells are transiently transfected with plasmid containing either the hT2R8, hT2R14 or hT2R54 nucleic acid sequence, and plasmid containing a chimeric G protein (G16gust44). Another 24 hours later, the cells are incubated with a fluorescent dye specific for calcium (Fluo-4 or Fura-2; Molecular Probes) that provides a fast, simple and reliable fluorescence-based method for detecting changes in calcium concentration inside the cell. Activation of the T2Rs elicits a signaling cascade leading to the activation of PLC and a subsequent increase in intracellular calcium concentration. This increase in calcium concentration changes the fluorescence properties of the calcium dye inside the cells. These changes are monitored using fluorescence microscopy and a specific design software (Imaging Workbench, Axon).
as §2, with “this receptor” for “these receptors”, “3CQAL and 4CQAL” for “3CoQAL”
as §2, with “this receptor” for “these receptors”, “4FQAL” for “3CoQAL”, “brief” for “brief,”
For orientation: A change in cytosolic calcium serves as a functional read-out for many receptors and channels.

Experiment [2] concerns the target T2, hT2R14 (Homo sapiens, UniProt Q9NYV8).
T2 construct: expressed in transfected cells; host or cells: human embryonic kidney (HEK293) cells, transient transfection
T2 sequence (Q9NYV8 1-317): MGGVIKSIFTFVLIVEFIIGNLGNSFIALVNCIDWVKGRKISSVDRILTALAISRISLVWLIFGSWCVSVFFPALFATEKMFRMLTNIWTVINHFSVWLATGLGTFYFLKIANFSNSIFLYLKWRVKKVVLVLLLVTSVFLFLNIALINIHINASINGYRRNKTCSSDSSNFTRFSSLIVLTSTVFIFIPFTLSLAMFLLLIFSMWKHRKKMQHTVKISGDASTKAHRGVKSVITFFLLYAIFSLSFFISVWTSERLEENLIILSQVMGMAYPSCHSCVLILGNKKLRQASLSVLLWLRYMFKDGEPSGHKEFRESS
The experiment in a line: calcium imaging of HEK293 cells transfected with hT2R14 and chimeric G protein G16gust44. As to conditions: for response of HEK-293 cells that express hT2R14: 2 mM concentrations, FIG. 3; for response of hT2R14 (increase in intracellular calcium concentration): different concentrations, FIG. 2. Here is the method: as §1, §2
as §2, with “this receptor” for “these receptors”, “3CQAL and 4CQAL” for “3CoQAL”
as §2, with “this receptor” for “these receptors”, “4FQAL” for “3CoQAL”, “brief” for “brief,”

In experiment [3] the target is T3, hT2R54 (Homo sapiens, UniProt P59534).
T3 construct: expressed in transfected cells; host or cells: human embryonic kidney (HEK293) cells, transient transfection
T3 sequence (P59534 18-338): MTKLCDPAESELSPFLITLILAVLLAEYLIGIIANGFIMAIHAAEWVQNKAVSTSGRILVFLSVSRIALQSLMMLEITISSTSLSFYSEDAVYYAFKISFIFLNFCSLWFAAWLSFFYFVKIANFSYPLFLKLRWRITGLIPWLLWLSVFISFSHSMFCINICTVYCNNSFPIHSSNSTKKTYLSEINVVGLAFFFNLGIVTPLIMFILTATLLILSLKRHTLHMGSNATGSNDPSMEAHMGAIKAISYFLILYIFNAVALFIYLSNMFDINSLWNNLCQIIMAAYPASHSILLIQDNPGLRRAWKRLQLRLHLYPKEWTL
The experiment in a line: calcium imaging of HEK293 cells transfected with hT2R54 and chimeric G protein G16gust44. As to conditions: for response of HEK-293 cells that express hT2R54: 2 mM concentrations, FIG. 3; for response of hT2R54 (increase in intracellular calcium concentration): different concentrations, FIG. 2 / FIG. 4. The procedure:
as §1, §2
as §2, with “this receptor” for “these receptors”, “3CQAL and 4CQAL” for “3CoQAL”
as §2, with “this receptor” for “these receptors”, “4FQAL” for “3CoQAL”, “brief” for “brief,”

This note sets out measurements from patent publication US8318447B2, “Use of bitter taste receptor to screen for compounds that offset the bitter taste of chlorogenic lactone containing coffee compositions” (Senomyx Inc., priority 2005, dated 2012).

For `O=C(/C=C/c1ccc(O)c(O)c1)O[C@@H]1C[C@]2(O)C[C@@H](OC2=O)[C@@H]1O` [3CQAL], in experiment [1], the “response of HEK-293 cells that express hT2R8” value is recorded as “specifically respond”. Further, the “response of HEK-293 cells that express hT2R14” value in experiment [2] is “specifically respond”. In addition, the “response of HEK-293 cells that express hT2R54” value in experiment [3] was “specifically respond”.

For the compound `O=C(C=Cc1ccc(O)cc1)OC1CC2(O)CC(OC2=O)C1O` (stereo not drawn) [3CoQAL], the “response of hT2R8 (increase in intracellular calcium concentration)” value in experiment [1] is “responded”. Moreover, in experiment [2], the “response of hT2R14 (increase in intracellular calcium concentration)” value is reported as “responded”. Further, in experiment [3], the “response of hT2R54 (increase in intracellular calcium concentration)” value is reported as “responded”.

As to `O=C(C=Cc1ccc(O)c(O)c1)OC1C(O)CC2(O)CC1OC2=O` (stereo not drawn) [4CQAL], the “response of HEK-293 cells that express hT2R8” value in experiment [1] is listed as “specifically respond”. Moreover, in experiment [2], the “response of HEK-293 cells that express hT2R14” value is given as “specifically respond”. Moreover, in experiment [3], the “response of HEK-293 cells that express hT2R54” value is reported as “specifically respond”.

On to `COc1cc(/C=C/C(=O)O[C@@H]2[C@H](O)C[C@]3(O)C[C@H]2OC3=O)ccc1O` [4FQAL], for which, in experiment [1], the “response of hT2R8 (increase in intracellular calcium concentration)” value is given as “responded specifically”. Further, the “response of hT2R14 (increase in intracellular calcium concentration)” value in experiment [2] is recorded as “specifically activate”. Further, in experiment [3], the “response of hT2R54 (increase in intracellular calcium concentration)” value was “responded specifically”.

Regarding `OC[C@H]1O[C@@](CO)(O[C@H]2O[C@H](CO)[C@@H](O)[C@H](O)[C@H]2O)[C@@H](O)[C@@H]1O` [sucrose], in experiment [1], the “response of HEK-293 cells that express hT2R8” value was “do not respond” and the “response of hT2R8 (increase in intracellular calcium concentration)” value is listed as “do not respond”. In addition, in experiment [2], the “response of HEK-293 cells that express hT2R14” value is listed as “do not respond” and the “response of hT2R14 (increase in intracellular calcium concentration)” value is “do not respond”. Also, in experiment [3], the “response of HEK-293 cells that express hT2R54” value is reported as “do not respond” and the “response of hT2R54 (increase in intracellular calcium concentration)” value was “do not respond”.
